These results are taken from article PMC6130797 (ACS Omega, 2018).

“And” between values parts separate entries of the source, which are not always exact repeats. Equal values may be shown once. Read-outs that look alike come from different tables or passages of the source.

Test [1] deals with gpH1R (Cavia porcellus, UniProt P31389). Kind of test: Histamine H1 receptor assay on isolated guinea pig ileum.
The target in test [2] is gpH2R (Cavia porcellus, UniProt P47747). On the set-up: species or system guinea pig.
Sequence of gpH2R (P47747 whole entry): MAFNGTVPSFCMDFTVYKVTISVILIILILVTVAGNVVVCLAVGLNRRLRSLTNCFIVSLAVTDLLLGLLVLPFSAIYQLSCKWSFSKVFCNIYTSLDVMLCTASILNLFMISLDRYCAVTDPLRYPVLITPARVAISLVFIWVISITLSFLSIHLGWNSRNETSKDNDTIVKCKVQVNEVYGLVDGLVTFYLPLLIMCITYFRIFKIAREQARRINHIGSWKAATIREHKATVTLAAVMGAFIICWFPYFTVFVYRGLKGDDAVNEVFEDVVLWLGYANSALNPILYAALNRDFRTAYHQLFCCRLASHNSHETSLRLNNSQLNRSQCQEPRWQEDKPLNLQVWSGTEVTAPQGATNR
The target in test [3] is hH1R (Homo sapiens, UniProt P35367). In words: biochemical. The format is binding.
Sequence of hH1R (P35367 whole entry): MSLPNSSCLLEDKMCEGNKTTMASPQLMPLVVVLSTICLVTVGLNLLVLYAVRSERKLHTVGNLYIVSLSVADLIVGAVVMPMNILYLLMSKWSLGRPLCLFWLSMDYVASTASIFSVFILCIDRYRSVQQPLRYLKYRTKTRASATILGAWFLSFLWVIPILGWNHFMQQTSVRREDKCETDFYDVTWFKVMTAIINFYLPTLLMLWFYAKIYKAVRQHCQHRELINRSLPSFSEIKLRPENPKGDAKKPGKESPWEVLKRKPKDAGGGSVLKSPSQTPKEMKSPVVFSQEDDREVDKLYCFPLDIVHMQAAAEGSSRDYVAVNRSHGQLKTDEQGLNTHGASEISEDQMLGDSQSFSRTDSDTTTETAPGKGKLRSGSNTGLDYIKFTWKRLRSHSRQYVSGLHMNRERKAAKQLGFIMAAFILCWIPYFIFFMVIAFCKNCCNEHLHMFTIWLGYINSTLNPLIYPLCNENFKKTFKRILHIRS
The target of test [4] is hH3R (Homo sapiens, UniProt Q9Y5N1). Kind of test: Radioligand competition binding with [3H]Nα-methylhistamine, Sf9 cell membranes. For orientation: Displacement assays read how much labelled ligand stays bound in the presence of the test substance.
Sequence of hH3R (Q9Y5N1 whole entry): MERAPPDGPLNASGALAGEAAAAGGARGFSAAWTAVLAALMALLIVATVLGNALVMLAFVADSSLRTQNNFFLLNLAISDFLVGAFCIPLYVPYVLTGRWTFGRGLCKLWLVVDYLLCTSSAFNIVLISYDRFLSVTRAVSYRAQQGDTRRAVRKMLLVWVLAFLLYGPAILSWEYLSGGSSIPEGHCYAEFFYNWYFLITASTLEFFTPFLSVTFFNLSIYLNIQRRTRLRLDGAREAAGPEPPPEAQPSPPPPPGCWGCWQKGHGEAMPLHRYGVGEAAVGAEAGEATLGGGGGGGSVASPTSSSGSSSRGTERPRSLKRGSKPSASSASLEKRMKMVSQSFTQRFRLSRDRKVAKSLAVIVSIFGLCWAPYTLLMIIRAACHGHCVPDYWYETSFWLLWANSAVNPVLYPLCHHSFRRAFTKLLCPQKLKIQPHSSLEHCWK
Test [5] has as its target hH2R (Homo sapiens, UniProt P25021). The format is binding.
The target of test [6] is hH4R (Homo sapiens, UniProt Q9H3N8). Kind of test: Radioligand competition binding with [3H]histamine, Sf9 cell membranes.
Sequence of hH4R (Q9H3N8 whole entry): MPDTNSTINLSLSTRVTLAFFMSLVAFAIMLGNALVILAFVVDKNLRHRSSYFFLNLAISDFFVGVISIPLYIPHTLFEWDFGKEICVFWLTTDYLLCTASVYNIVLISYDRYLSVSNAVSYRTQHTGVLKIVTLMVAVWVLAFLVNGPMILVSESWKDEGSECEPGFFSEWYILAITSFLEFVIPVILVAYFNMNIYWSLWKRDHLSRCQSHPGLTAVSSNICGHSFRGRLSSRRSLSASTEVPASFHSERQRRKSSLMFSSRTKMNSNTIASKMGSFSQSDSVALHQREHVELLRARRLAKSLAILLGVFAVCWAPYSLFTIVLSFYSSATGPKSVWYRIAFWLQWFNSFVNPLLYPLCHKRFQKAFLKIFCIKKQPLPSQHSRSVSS
Setting [7] is: hH3R pKi, [3H]Nα-methylhistamine (Kd 8.6 nM, c = 3 nM), mean ± SEM.
[8] abbreviates: hH2R pKi, [3H]tiotidine (Kd […], c = 10 nM), mean ± SEM.
The mark [9] stands for this setting: hH1R pKi, [3H]mepyramine (Kd 4.5 nM, c = 5 nM), mean ± SEM.

Sequence of gpH1R (P31389 whole entry): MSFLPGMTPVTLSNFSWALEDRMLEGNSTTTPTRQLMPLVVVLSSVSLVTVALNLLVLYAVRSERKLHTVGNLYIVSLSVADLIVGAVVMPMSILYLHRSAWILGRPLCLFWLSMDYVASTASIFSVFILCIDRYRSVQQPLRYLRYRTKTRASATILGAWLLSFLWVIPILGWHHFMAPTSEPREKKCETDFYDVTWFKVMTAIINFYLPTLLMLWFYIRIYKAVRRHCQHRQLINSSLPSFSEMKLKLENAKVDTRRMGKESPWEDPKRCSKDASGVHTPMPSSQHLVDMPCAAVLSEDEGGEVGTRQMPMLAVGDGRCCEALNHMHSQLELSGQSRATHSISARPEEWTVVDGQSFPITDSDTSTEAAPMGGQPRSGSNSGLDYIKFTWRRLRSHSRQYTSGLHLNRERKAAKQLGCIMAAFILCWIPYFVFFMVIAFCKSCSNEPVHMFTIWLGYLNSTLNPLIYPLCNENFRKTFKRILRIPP
Sequence of hH2R (P25021 whole entry): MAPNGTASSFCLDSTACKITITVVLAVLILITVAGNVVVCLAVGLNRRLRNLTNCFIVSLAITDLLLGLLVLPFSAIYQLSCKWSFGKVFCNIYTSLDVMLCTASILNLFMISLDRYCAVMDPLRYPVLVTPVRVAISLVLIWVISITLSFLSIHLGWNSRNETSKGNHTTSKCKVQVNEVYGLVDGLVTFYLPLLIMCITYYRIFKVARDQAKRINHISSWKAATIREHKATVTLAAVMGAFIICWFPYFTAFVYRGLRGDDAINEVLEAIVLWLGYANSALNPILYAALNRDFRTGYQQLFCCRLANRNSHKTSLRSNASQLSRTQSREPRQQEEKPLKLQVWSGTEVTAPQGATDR
Sequence of hH2R (P63092 1-380 isoform P63092-2 partner): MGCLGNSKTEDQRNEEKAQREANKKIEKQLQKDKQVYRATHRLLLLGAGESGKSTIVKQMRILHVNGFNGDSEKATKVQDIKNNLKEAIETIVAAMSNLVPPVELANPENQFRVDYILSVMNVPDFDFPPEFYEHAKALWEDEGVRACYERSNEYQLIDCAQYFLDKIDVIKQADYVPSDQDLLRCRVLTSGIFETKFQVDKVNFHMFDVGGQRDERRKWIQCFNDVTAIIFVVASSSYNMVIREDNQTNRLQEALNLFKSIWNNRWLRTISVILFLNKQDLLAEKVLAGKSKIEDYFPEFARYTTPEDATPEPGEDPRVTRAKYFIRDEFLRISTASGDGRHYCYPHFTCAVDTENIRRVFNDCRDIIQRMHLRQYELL

The EC50 is the concentration that produces a half-maximal response. Usually Ki stands for a measure of affinity in units of concentration, obtained from inhibition or displacement. Low readings indicate higher affinity, high ones lower affinity. `N=C(NCCCNC(=N)NCCCc1c[nH]cn1)NCCCc1c[nH]cn1` [Compound 53] gave a Kb in test [1] of 631 nM. For the same molecule, in test [2], the EC50 was 49 nM. Moreover, in test [2], the “gpH2R Emax” value was 0.96 and 0.96 ± 0.01. In addition, the inhibitory constant (Ki) in test [3] (hH1R pKi) is more than 10000 nM; in test [4] (setting [7]) it was 112 nM; in test [5] (setting [8]), 174 nM; in test [6] (hH4R pKi) it was 200 nM.
In turn, `N=C(NCCCCNC(=N)NCCCc1c[nH]cn1)NCCCc1c[nH]cn1` [Compound 54] gave a Kb in test [1] of 1290 nM. The molecule further had a concentration giving a half-maximal response (EC50) in test [2] of 38 nM. The “gpH2R Emax” value in test [2] is given as 0.94 ± 0.01. Moreover, the Ki in test [3] (hH1R pKi) was more than 10000 nM; in test [4] (setting [7]) it was 145 nM; in test [5] (setting [8]), 407 nM; in test [6] (hH4R pKi), 661 nM.
As for `N=C(NCCCCCCNC(=N)NCCCc1c[nH]cn1)NCCCc1c[nH]cn1` [Compound 55], in test [1], the Kb is 2040 nM. This molecule showed a half-maximal effective concentration (EC50) in test [2] of 16.6 nM. In addition, the “gpH2R Emax” value in test [2] was 0.90 ± 0.04. Moreover, the Ki was more than 3160 nM in test [3] (hH1R pKi), 52.5 nM in test [4] (setting [7]), 151 nM in test [5] (setting [8]) and 427 nM in test [6] (hH4R pKi).
As to `N=C(NCCCCCCCCCCNC(=N)NCCCc1c[nH]cn1)NCCCc1c[nH]cn1` [Compound 56], in test [1], the Kb is 229 nM. In test [2], this molecule gave an EC50 of 25.1 nM. For the same molecule, the “gpH2R Emax” value in test [2] is recorded as 0.71 ± 0.04. In addition, the Ki was 1260 nM in test [3] (hH1R pKi), 19.1 nM in test [4] (setting [7]), 33.9 nM in test [5] (setting [8]) and 20.9 nM in test [6] (hH4R pKi).
Consider `N=C(NCCCCCCCCNC(=N)NCCCn1ccnc1)NCCCn1ccnc1` [Compound 60], for which the Kb in test [1] is 4270 nM. This molecule also showed a concentration giving a half-maximal response (EC50) in test [2] of 4900 nM. Moreover, the “gpH2R Emax” value in test [2] is 0.20 and 0.20 ± 0.02. For the same molecule, the Ki in test [3] (hH1R pKi) is more than 10000 nM; in test [4] (setting [7]), 2750 nM; in test [5] (setting [8]) it was 4470 nM; in test [6] (hH4R pKi), 33900 nM.
In test [1], `CNC(=N)NCCCc1c[nH]cn1` [Compound 127] showed a Kb of 58900 nM. The EC50 in test [2] is 7940 nM. Moreover, in test [2], the “gpH2R Emax” value stood at 0.58 ± 0.07. The inhibition constant (Ki) in test [3] (setting [9]) was more than 31600 nM; in test [4] (setting [7]) it was 155 nM; in test [5] (setting [8]), 2750 nM; in test [6] (hH4R pKi) it was 26.3 nM.
In test [1], `CCNC(=N)NCCCc1c[nH]cn1` [Compound 128] had a Kb of 8320 nM. The molecule also gave a concentration for a half-maximal effect (EC50) in test [2] of 7240 nM. In test [2], the “gpH2R Emax” value was found to be 0.55 ± 0.07. The Ki in test [3] (setting [9]) was more than 31600 nM; in test [4] (setting [7]), 93.3 nM; in test [5] (setting [8]) it was 4900 nM; in test [6] (hH4R pKi) it was 13.5 nM.
On to `CCCNC(=N)NCCCc1c[nH]cn1` [Compound 129, 1-[3-(1H-Imidazol-4-yl)propyl]-3-propylguanidine], for which, in test [2], the “gpH2R Emax” value is 0.83 ± 0.03. Besides, the Ki was more than 1000 nM in test [3] (Ki hH1R, bound stated); more than 31600 nM in test [3] (setting [9]); less than 100 nM in test [4] (Ki hH3R, bound stated); more than 1000 nM in test [5] (Ki hH2R, bound stated); 3020 nM in test [5] (setting [8]); less than 100 nM in test [6] (Ki hH4R, bound stated).
`CC(C)NC(=N)NCCCc1c[nH]cn1` [Compound 130] had a Kb in test [1] of 5370 nM. In test [2], the response was half-maximal at 1550 nM (EC50). Besides, in test [2], the “gpH2R Emax” value is on record as 0.87 ± 0.04. The Ki in test [3] (hH1R pKi) was more than 10000 nM; in test [4] (setting [7]), 91.2 nM; in test [5] (setting [8]), 4170 nM; in test [6] (hH4R pKi), 38 nM.
The molecule `CCCCNC(=N)NCCCc1c[nH]cn1` [Compound 131] had a Kb in test [1] of 4070 nM. In addition, a half-maximal effect in test [2] (EC50) was put at 832 nM. Further, the “gpH2R Emax” value in test [2] was 0.86 ± 0.04. Further, the Ki in test [3] (hH1R pKi) is more than 10000 nM; in test [4] (setting [7]) it was 61.7 nM; in test [5] (setting [8]) it was 776 nM; in test [6] (hH4R pKi), 9.12 nM.
`CC(C)CNC(=N)NCCCc1c[nH]cn1` [Compound 132] gave a Kb in test [1] of 10200 nM. The concentration for a half-maximal effect (EC50) in test [2] is 1350 nM. For the same molecule, in test [2], the “gpH2R Emax” value was found to be 0.86 ± 0.08. The inhibition constant Ki is more than 31600 nM in test [3] (setting [9]), 66.1 nM in test [4] (setting [7]), 759 nM in test [5] (setting [8]) and 17.8 nM in test [6] (hH4R pKi).
With `CC(C)(C)NC(=N)NCCCc1c[nH]cn1` [Compound 133], in test [2], a half-maximal response (EC50) required 15100 nM. In addition, the “gpH2R Emax” value in test [2] came to 0.92 ± 0.03. Further, the Ki in test [3] (hH1R pKi) was more than 100000 nM; in test [4] (setting [7]) it was 372 nM; in test [5] (setting [8]), 2510 nM; in test [6] (hH4R pKi) it was 219 nM.
`CCCCCNC(=N)NCCCc1c[nH]cn1` [Compound 134] gave a Kb in test [1] of 4470 nM. This molecule also showed a half-maximal effective concentration (EC50) in test [2] of 363 nM. In addition, in test [2], the “gpH2R Emax” value was 0.90 ± 0.02. Also, the inhibitory constant (Ki) is more than 10000 nM in test [3] (hH1R pKi), 91.2 nM in test [4] (setting [7]), 933 nM in test [5] (setting [8]) and 6.76 nM in test [6] (hH4R pKi).
For `CC(C)CCNC(=N)NCCCc1c[nH]cn1` [Compound 135], the Kb in test [1] is 7240 nM. Further, a half-maximal response in test [2] (EC50) required 240 nM. Also, the “gpH2R Emax” value in test [2] was 0.89 ± 0.05. Further, the inhibitory constant (Ki) is more than 10000 nM in test [3] (hH1R pKi), 115 nM in test [4] (setting [7]), 794 nM in test [5] (setting [8]) and 25.1 nM in test [6] (hH4R pKi).
`CCCCCCCCCCNC(=N)NCCCc1c[nH]cn1` [Compound 137] showed a Kb in test [1] of 182 nM. Besides, the “gpH1R pA2” value in test [1] (guinea pig ileum, antagonism of histamine-induced contraction) was determined as 6.74. Moreover, in test [2], the concentration giving a half-maximal response (EC50) was 295 nM. In test [2], the “gpH2R Emax” value was found to be 0.90 ± 0.03. In addition, the Ki in test [3] (hH1R pKi) is 2000 nM; in test [4] (setting [7]) it was 31.6 nM; in test [5] (setting [8]), 141 nM; in test [6] (hH4R pKi) it was 97.7 nM.
For `CCCCCCCCCCCCNC(=N)NCCCc1c[nH]cn1` [Compound 138], the Kb in test [1] is 195 nM. A half-maximal response in test [2] (EC50) required 234 nM. In addition, the “gpH2R Emax” value in test [2] is 0.91 and 0.91 ± 0.03. Also, the inhibition constant (Ki) in test [3] (hH1R pKi) was 2950 nM; in test [4] (setting [7]), 29.5 nM; in test [5] (setting [8]) it was 603 nM; in test [6] (hH4R pKi) it was 12.6 nM.
As to `CCCCCCCCCCCCNC(=N)NCCCc1cnc(N)s1` [Compound 140], the Kb in test [1] was 372 nM. Moreover, it took 562 nM to reach a half-maximal effect in test [2] (EC50). Besides, the “gpH2R Emax” value in test [2] came to 0.70 ± 0.01. The inhibition constant (Ki) in test [3] (hH1R pKi) was more than 3160 nM; in test [4] (setting [7]), 14100 nM; in test [5] (setting [8]), 269 nM; in test [6] (hH4R pKi) it was 11200 nM.
`CCCCCCCCCCCCNC(=N)NCCCn1ccnc1` [Compound 141] gave a Kb in test [1] of 372 nM. Also, in test [2], the “gpH2R Emax” value was determined as 0. Moreover, the “gpH2R pEC50” value in test [2] is listed as “not active”. Also, the inhibition constant Ki in test [3] (hH1R pKi) is more than 3160 nM; in test [4] (setting [7]), 6460 nM; in test [5] (setting [8]), 1260 nM; in test [6] (hH4R pKi), 12900 nM.
As to `c1nc(CCCNC2=NCCCN2)c[nH]1` [Compound 145, N-[3-(1H-imidazol-4-yl)propyl]-1,4,5,6-tetrahydropyrimidin-2-amine], in test [1], the Kb is 5750 nM. This molecule also gave an EC50 in test [2] of 1510 nM. The “gpH2R Emax” value in test [2] (guinea pig right atrium, relative to maximal increase in heart rate induced by histamine (Emax = 1.00)) was found to be 1.00 ± 0.03. Further, the inhibitory constant (Ki) is more than 10000 nM in test [3] (hH1R pKi), 186 nM in test [4] (hH3R pKi), 3160 nM in test [5] (setting [8]) and 38 nM in test [6] (hH4R pKi).
For orientation: Kd means the constant that tells how readily two partners part at equilibrium. For `CNCCc1cnc[nH]1` [[^3H]N^α-methylhistamine, reference compound], in test [4] (read-out: Kd of radioligand at hH3R, Sf9 membranes), the equilibrium dissociation constant (Kd) turned out to be 8.6 nM.
